Data from article PMC10755736, “Modulating Liquid–Liquid Phase Separation of Nck Adaptor Protein against Enteropathogenic Escherichia coli Infection” (ACS Central Science, 2023).
“Also recorded” adds a separate entry of the source. Non-standard residues stand in square brackets, D forms with d. Residues, ends and D or L forms follow the SMILES beside them. *: point of attachment. Biotin = O=C1N[C@H]2[C@H](CS[C@H]2CCCCC(=O)*)N1; Benzoyl(4-SO2F) = O=C(c1ccc(S(=O)(=O)F)cc1)*; pY = N[C@@H](Cc1ccc(OP(=O)(O)O)cc1)C(=O)O; Dap = NC[C@H](N)C(=O)O

Experiments:
Nck = target: T1, Nck (Homo sapiens, UniProt P16333); assay: Reaction of peptides with Nck in Caco-2 cell lysate (Western blotting); format: binding; conditions: lysate of Caco-2 cells (5 µg/µl) overexpressing Nck; peptide 10 µM, 37 °C, 60 min; anti-Nck Western blot
T1 construct: GST (followed by PreScission/HRV 3C site) (N, cleaved yes); made in house; host or cells: E. coli BL21(DE3)
Procedure: In addition, we performed the reaction between p1 and Nck in a cell lysate, representing a complex solution. We incubated peptide p1 with the lysate of Caco-2 cells overexpressing Nck, and the reaction mixture was resolved on SDS-PAGE and analyzed with Western blotting against an anti-Nck antibody. […] Next, we incubated biotinylated peptide Y474 and Nck solutions with or without p1 peptide, and pulled down proteins that bound with biotinylated Y474.
Figure S7. Reaction of p1 in cell lysate. Biotinylated p1 peptide (10 µM) was incubated with the
lysate of Caco-2 cells (5 µg/µl)to react at 37 °C for 60 min before the mixture was resolved on SDS-
PAGE. Western blotting experiments using an anti-biotin antibody and an anti-Nck antibody, […]

Caco-2 cells = assay: Cell viability by CCK8 assay; format: cell-based
Procedure: concentrations were added to each well, followed by a 90-min incubation at 37 °C. Diluted streptavidin-HRP solution was then added, followed by substrate solution to develop cover at 450 nm, and recorded by a plate reader. For MST test, a series diluted solutions of the cy5 labeled peptides were incubated with 400 nM Nck for 30 min and loaded into 16 capillaries. And then the samples were scanned and measured at 20% IR Laser power with 30 s laser-on time on a Monolith NT.115 instrument (NanoTemper Technologies). The data were analyzed by KD fitting model (KD) or hill fitting model […]
A Cell Line Stably Expressing N-WASP
To establish a stable pool of cells for N-WASP overexpression, Caco-2 cells were infected at 70-80% confluency with the virus diluted in a suitable medium supplemented with 8 µg/ml […]. After 48 h of incubation, infected cells were treated with puromycin for 7-14 days. The selection medium was changed every 2 days. Under the same treatment conditions, uninfected parental cells were used as selection controls. […]
Plasmid extraction was done using a plasmid DNA Maxi kit (Omega Bio-Tek, GA, USA). […] 48 h after transfection, cells were analyzed by fluorescent micrscopes. Cell viability was measured by a CCK8 assay (Thermo Fisher Scientific) according to its manual. […]
Figure S10. […] The viability was measured at 450 nm absorbance.

Nck in Caco-2 cells = assay: In cell reaction of p1 with endogenous Nck (Western blot); format: cell-based; conditions: L17E and p1 (printed 40 mM and 10 mM) overnight; anti-Nck Western blot
Procedure: (§1) Caco-2 cells were seeded in a 24-well plate at a density of 1×10^4 cells for 24 h and pretreated with peptide complexes for 2 h. After washing with DMEM, cells were infected with EPEC at selected MOI values for 3 h at 37 ℃. Cells were then treated with gentamicin ([…]) for 2 h and lysed with 1% Triton X-100 for 15 min. The lysates were diluted 100 or 1000 folds to be spread on LB agar plates […]
Immunofluorescence Confocal Microscopy
Infected cells were fixed with 4% PFA and treated with 0.1% Triton X-100 for 10 min. And then the samples were blocked with 3% BSA for 1 h, incubated with anti-Tir antibody (Abbexa, C ambridge, UK) at 1:200 at 4℃ over night and followed by incubation with Alexa Fluo 488 goat anti -rabbit IgG secondary antibody at room temperature for 2 h. Cells were treated with DAPI (Invitrogen) for 10 min, then stained with phalloidin (Alexa Fluor 594 -conjugated phalloidin, Invitrogen) for 1 h and imaged by a confocal fluorescent microscope (SP8, Leica).
Caco -2 cells were treated with peptides overnight and lysed via RIPA buffer containing protease inhibitors for 15 min at 4℃. […]
SPSS 23.0 statistical software was used to process experimental data. The differences between mean ± SEM of three independent experiments were assessed by Student's t -test. […]

[1] = system: EPEC infection of Caco-2 cells; assay: EPEC infection assay of Caco-2 cells (CFU counts); format: cell-based, enteropathogenic Escherichia coli; conditions: L17E 40 μM
Procedure: Lastly, to examine whether pretreatment of Caco-2 cells with L17E/p1 could prevent EPEC infection, we first established a bacterial infection assay (Figure 7a). Caco-2 cells were pretreated with L17E/p1 for 2 h. After excess peptides were removed, Caco-2 cells were then infected with EPEC at different multiplicity of infection (MOI) values (MOI is commonly defined as the ratio of infectious bacteria to cells in a culture) for 3 h, and extra bacterial cells were removed from the culture. Next, gentamicin was added to the cell culture to remove EPEC that are merely attached to the surface of Caco-2 cells, leaving only engulfed EPEC inside Caco2 cells to be counted (gentamicin treatment will not kill intracellular bacteria due to its cellular impermeability). After gentamicin was washed away, cells were lysed to release EPEC cells inside, and the cell lysates were diluted to count the number of EPEC cells as colony-forming units (cfu) on agar plates.
as §1, with “1%” for “1% Triton X-100 for 15 min. The lysates were diluted 100 or 1000 folds to be spread on LB agar plates”
Triton X-100 for 15 min. […]
The sample was loaded onto 12% SDS/PAGE glycerol gel and then transferred onto a PVDF membrane using Bio-Rad […]. The membrane was blocked and incubated with a rabbit anti-Nck antibody (Abcam, Hong Kong) at 4 °C overnight, followed by a n anti -rabbit HRP -labeled secondary antibody (Abcam, Hong Kong).
SPSS 23.0 statistical software was used to process experimental data. The differences between mean ± SEM of three independent experiments were assessed by Student's t -test.

`CC[C@H](C)[C@H](NC(=O)[C@H](Cc1c[nH]cn1)NC(=O)[C@H](CCC(=O)O)NC(=O)[C@H](CCC(=O)O)NC(=O)CCCC[C@@H]1SC[C@@H]2NC(=O)N[C@@H]21)C(=O)N[C@@H](Cc1ccc(OP(=O)(O)O)cc1)C(=O)N[C@@H](CNC(=O)c1ccc(S(=O)(=O)F)cc1)C(=O)N[C@@H](CCC(=O)O)C(=O)N[C@H](C(=O)N[C@@H](C)C(=O)N[C@@H](C)C(=O)N[C@@H](CC(=O)O)C(N)=O)C(C)C` [p1] (Biotin-EEHI[pY][Dap](Benzoyl(4-SO2F))EVAAD-NH2; N-terminus and C-terminus assumed) was tested, and the “Nck band shift in cell lysate” value (Nck) was “complete band shift”, the cytotoxicity (Caco-2 cells; CCK8, p1 0.3125-10 μM with L17E 40 μM for 3 h, 48 h incubation) was “did not cause noticeable cytotoxicity” and the “cell physiology or toxicity changes from side reactions of sulfonyl fluoride” value (Caco-2 cells; inside cells) was “did not cause noticeable changes in the cell physiology or toxicity”. The “reaction with endogenous Nck in cytosol” value (Nck in Caco-2 cells) was “reacted with the endogenous Nck in the cytosol of Caco-2 cells”, the “efficacy compared with Y474 in anti-infection assay” value ([1]; p1 vs Y474 at lower concentrations) was “significantly higher efficacy than Y474 at lower concentrations” and the “blockage of EPEC invasion/infection of Caco-2 cells” value ([1]; with L17E-mediated delivery) was “rendered Caco-2 cells resistant to EPEC infection; also recorded: can block EPEC invasion to Caco-2 cells”.
